Measurements taken from patent publication US20260115202A1, “TOPICAL COMPOSITIONS COMPRISING AN ESTETROL COMPONENT AND USE OF SAID COMPOSITIONS FOR WOUND HEALING” (NEURALIS SA, priority 2022, published 2026).

Columns and labels:
[1] = test system: murine dermal fibroblasts (MDF); experiment: qPCR gene expression in murine dermal fibroblasts; type: cell-based, mouse; conditions: MDF, 10^−7M, qPCR
Description: Primary human dermal fibroblasts (HDF) were isolated from abdominal skin or leg skin. Primary neonatal normal human epidermal keratinocytes (NHEK) were purchased (Lonza). Murine dermal fibroblasts (MDF), murine epidermal keratinocytes (MEK), murine peritoneal macrophages and murine bone marrow were isolated from C57/B16 (wt). NDb (Lepr+/−) or Db (Lepr−/−) mice. Fibroblasts were isolated and cultured in DMEM supplemented with 10% heat inactivated FBS. 1% penicillin/streptomycin and 1% amphotericin B. At least 4 days prior to performing assays cells were switched to DMEM supplemented with 5% charcoal-stripped FBS. Following treatments, human and murine macrophages were collected in Trizol and RNA isolated using the Trizol plus RNA isolation kit (Invitrogen. Thermo Fisher) according to the manufacturer's instructions. RNA was reverse transcribed to cDNA using GoScript reverse transcriptase (Promega). Quantitative real-time PCR was carried out using 2×Takyon SYBR Green mastermix and a CFX Connect thermocycler. Primers for ERα and ERβ were used to explore changes in ER expression after treatment of MEK and MDF with E2 and E4. To investigate the effect of E2 and E4 on MEK differentiation and the expression of ECM proteins by MDF, primers for. Snail, keratin-1 and fibronectin, collagen I. MMP-2 and MMP-9 were used. Primers for INOS. IL-1B and Tnf-α or Ccl17 were used to assess M1/M2 polarisation status. Primers for GAPDH were used to normalise data. Relative gene expression was set to vehicle controls or M0 expression unless otherwise stated. In vitro cultured murine fibroblasts were treated with either E2, E4, DPN or PPT at 10^−7M. As previously reported. […] Next, zymography was performed on cell supernatants from HDFs treated with either E2 or E4, to evaluate the effect of E2 and E4 on cell-derived MMP activity. […] The magnitude of the effect (and statistical significance) was greater in cells treated with E4. No MMP9 activity was detected in any treatment group. Finally, we explored the effect of E2 and E4 on murine fibroblast expression of extracellular matrix genes, specifically collagen 1 (Colal) and fibronectin (Fn1) (FIG. 20).

[2] = test system: human dermal fibroblasts (HDF); experiment: Scratch wound assay, human dermal fibroblasts; type: cell-based; conditions: HDF, 24 hours, preliminary
Description: Primary human dermal fibroblasts (HDF) were isolated from abdominal skin or leg skin. Primary neonatal normal human epidermal keratinocytes (NHEK) were purchased (Lonza). Murine dermal fibroblasts (MDF), murine epidermal keratinocytes (MEK), murine peritoneal macrophages and murine bone marrow were isolated from C57/B16 (wt). NDb (Lepr+/-) or Db (Lepr-/-) mice. Fibroblasts were isolated and cultured in DMEM supplemented with 10% heat inactivated FBS. 1% penicillin/streptomycin and 1% amphotericin B. At least 4 days prior to performing assays cells were switched to DMEM supplemented with 5% charcoal-stripped FBS. Cells were seeded into 24 well plates and cultured to form a confluent monolayer, and then scratched with a 1 ml pipette tip. Wells were treated with E2, E4 and/or various estrogen receptor agonists and antagonists. […] A vehicle control containing the equivalent concentration of EtOH and/or DMSO was included, in addition to an untreated negative control. All treatments were diluted to working concentrations in media supplemented with 2% charcoal-stripped FBS. To visualise scratches at the defined endpoint, cells were stained with crystal violet and imaged on a Nikon E400 brightfield microscope. Scratch closure was determined from multiple independent measurements per well. Scratch assays were performed to quantify the effect of E2 and E4 at varying concentrations on HDF migration (FIG. 14). […] 10^-7M and 10^-6M (152%. 147% and 142% respectively). Thus, both E2 and E4 optimally stimulated fibroblast scratch wound closure at 10^-8M, with the higher magnitude of stimulation observed following E2 treatment. Next, an additional experiment was performed using HDF to a) further confirm the effects of E2 and E4 in fibroblasts from a fifth donor and b) explore the relative effect of including CS-FBS in the cell culture media. Three identical sets of scratch assays were performed (comparing vehicle to E2 or E4 treatment at 10^-7M) in DMEM containing either 2% CS-FBS. 0% FBS or 2% FBS (not CS).

[3] = test system: mouse bone marrow derived macrophages (BMDM); experiment: M1-polarised murine bone marrow derived macrophages, qPCR of M1 markers; type: cell-based; conditions: M1 polarised BMDM, E4 10^−7M, preliminary
Procedure: Bones were flushed with DMEM supplemented with 1% penicillin/streptomycin and 1% amphotericin B. Bone marrow cells were seeded into 12- or 6-well plates at 1×10^6 cells/ml in DMEM supplemented with 10% FBS and 10% L929-conditioned medium to induce differentiation. After 7-10 days, differentiated macrophages were treated with 10^−7M E2 or E4 in serum free growth medium for 16 hours and polarised to M1-type cells using 100 ng/ml IFN-γ and 1 μg/ml LPS. Following 6- or 24-hours polarisation cells were collected for RNA isolation or flow cytometry.
Following treatments, human and murine macrophages were collected in Trizol and RNA isolated using the Trizol plus RNA isolation kit (Invitrogen. Thermo Fisher) according to the manufacturer's instructions. RNA was reverse transcribed to cDNA using GoScript reverse transcriptase (Promega). Quantitative real-time PCR was carried out using 2×Takyon SYBR Green mastermix and a CFX Connect thermocycler. Primers for ERα and ERβ were used to explore changes in ER expression after treatment of MEK and MDF with E2 and E4. To investigate the effect of E2 and E4 on MEK differentiation and the expression of ECM proteins by MDF, primers for. Snail, keratin-1 and fibronectin, collagen I. MMP-2 and MMP-9 were used. Primers for INOS. IL-1B and Tnf-α or Ccl17 were used to assess M1/M2 polarisation status. Primers for GAPDH were used to normalise data. Relative gene expression was set to vehicle controls or M0 expression unless otherwise stated.
For follow up experiments murine bone marrow derived monocytes were isolated, differentiated (L929 media) and polarised to a pro-inflammatory M1 phenotype (IFN-γ and LPS: for 6 or 24 hours), and co-treated with either E2 or E4 at the optimal concentration identified in THP1 cells (10^−7: FIG. 24). […] Experiments were then undertaken with murine bone marrow derived monocytes differentiated to macrophages with 30 ng/ml MCSF, as opposed to L929 conditioned media.

| SMILES | expression of ERα and ERβ [1] | effect of ER antagonist co-treatment on E4-induced scratch closure [2] | effect of ER antagonist co-treatment on E4-mediated reduction in IL1-β [3] |
| --- | --- | --- | --- |
| N#CC(Cc1ccc(O)cc1)c1ccc(O)cc1 (stereo not shown) [DPN] | increased ERβ expression |  |  |
| Cc1c(-c2ccc(O)cc2)nn(-c2ccc(O)cc2)c1-c1ccc(OCCN2CCCCC2)cc1 [MPP, reference compound] |  | appears to block E4-induced scratch closure | appears to block E4-induced scratch closure and E4-mediated reduction in IL1-β |
| CCCc1c(-c2ccc(O)cc2)nn(-c2ccc(O)cc2)c1-c1ccc(O)cc1 [PPT] | increased ERα |  |  |
